One assay deals with T1, H1 receptor (Cavia porcellus, UniProt P31389).
T1 construct: guinea pig cerebromembranous protein; from tissue; host or cells: guinea pig cerebral (brain) membranes
Description: H1 receptor binding inhibition test ([^3 H]mepyramin, guinea pig cerebromembranous protein). To be noted: for Kd: read-out: H1 receptor, dissociation constant KD. On the procedure:
1) H1 Receptor Binding Inhibition Test
An ice-cooled phosphate buffer was added to terminate the reaction, followed by immediate filtration through a Wattman CF/C filter. The filter was washed twice with 20 ml aliquots of the ice-cooled buffer. The radioactivity of the residue was measured by a liquid scintillation counter. From a measurement value obtained without the addition of the test compound and measurements values obtained upon addition of the test compound at various concentrations, the dose-response of the inhibitory action of the test compound was measured and the 50% inhibitory concentration (IC50) was determined. Using the Cheng-Prusoff formula, a dissociation constant was calculated from the IC50. In a binding assay, 10^-4 M R(-)dimethindene was used for the measurement of a nonspecific binding.

In another assay the target is T2, LTD4 receptor (Cavia porcellus, UniProt Q2NNR5).
T2 construct: guinea pig pulmomembranous protein; from tissue; host or cells: guinea pig lung membranes
T2 sequence (Q2NNR5 1-340): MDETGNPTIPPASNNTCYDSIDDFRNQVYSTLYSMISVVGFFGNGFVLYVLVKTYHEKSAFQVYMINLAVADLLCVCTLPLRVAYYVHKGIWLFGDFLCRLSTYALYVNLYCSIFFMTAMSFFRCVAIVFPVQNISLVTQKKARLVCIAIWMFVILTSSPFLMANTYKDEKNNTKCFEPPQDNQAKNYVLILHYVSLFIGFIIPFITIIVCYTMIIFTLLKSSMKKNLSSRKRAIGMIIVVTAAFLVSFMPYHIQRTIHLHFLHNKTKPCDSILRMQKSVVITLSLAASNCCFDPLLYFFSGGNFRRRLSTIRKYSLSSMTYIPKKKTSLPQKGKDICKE
Description: LTD4 receptor binding inhibition test ([^3 H]leukotriene D4, guinea pig pulmomembranous protein). The settings on record: for Kd: read-out: LTD4 receptor, dissociation constant KD; for inhibition at 10 µM / inhibition at 100 µM: read-out: LTD4 receptor (%), inhibition rate; for inhibition at 100 µM: a: 100 μM. The protocol: 2) LTD4 Receptor Binding Inhibition Test
An ice-cooled tris hydrochloride/sodium chloride buffer (10 mM/100 mM, pH 7.5) was added to terminate the reaction, followed by immediate filtration through a Wattman CF/C filter. The filter was washed twice with 20 ml aliguots of the ice-cooled buffer. The radioactivity of the residue was measured by a liquid scintillation counter. […] In a binding assay, 2 μM leukotriene D4 was used for the measurement of a nonspecific binding.

Where [1] appears, read: 0.2 nM [^3 H]leukotriene D4, pH 7.5, 22° C., 30 minutes, calculated from IC50.
The mark [2] stands for this setting: 0.5 nM [^3 H]mepyramin, pH 7.5, 37° C., 30 minutes, calculated from IC50 with Cheng-Prusoff formula.
[3] abbreviates: a: 100 μM, read-out: H1 receptor (%), inhibition rate.

The values that follow come from patent publication US5885987A, “Phenylene derivatives” (Kowa Co., Ltd., priority 1996, dated 1999).

Read-outs that look alike come from different tables or passages of the source.

T1 sequence (P31389 whole entry): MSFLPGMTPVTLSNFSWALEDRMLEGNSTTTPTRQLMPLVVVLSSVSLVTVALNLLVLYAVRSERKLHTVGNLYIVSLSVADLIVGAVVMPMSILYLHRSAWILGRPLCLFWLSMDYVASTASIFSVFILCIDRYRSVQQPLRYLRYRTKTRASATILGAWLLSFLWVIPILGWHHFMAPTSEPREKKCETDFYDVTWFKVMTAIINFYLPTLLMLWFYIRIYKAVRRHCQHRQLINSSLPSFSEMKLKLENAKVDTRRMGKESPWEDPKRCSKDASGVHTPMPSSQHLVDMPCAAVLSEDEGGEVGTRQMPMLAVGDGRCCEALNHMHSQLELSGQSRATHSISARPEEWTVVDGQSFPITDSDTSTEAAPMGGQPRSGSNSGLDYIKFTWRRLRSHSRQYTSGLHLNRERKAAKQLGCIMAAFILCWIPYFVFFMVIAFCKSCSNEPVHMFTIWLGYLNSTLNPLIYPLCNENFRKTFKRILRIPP

One may read the Kd as the equilibrium constant for the complex coming apart. As to “7-[3-(2-Quinolinylmethoxy)benzyloxy]-3,4-dihydro-2H-1,4-benzothiazin-3-one 1,1-dioxide [Example 77]”, the “H1 receptor (%), inhibition rate” value at H1 receptor (a: 100 μM) is given as 30%. On LTD4 receptor (setting [1]), the equilibrium dissociation constant (Kd) is 0.129 µM.
On to “7-[3-(2-quinolinylmethoxy)benzyloxy]-2,3,4,5-tetrahydro-tetrazolo-[5,1-a][2]benzazepin [Example 87]”, for which the figures for the Kd on H1 receptor (setting [2]) and at LTD4 receptor (setting [1]) were 67.2 µM and 0.0114 µM, respectively.
As for “7-[4-(2-quinolinylmethoxy)benzyloxy]-2,3,4,5-tetrahydro-tetrazolo-[5,1-a][2]benzazepin [Example 88]”, the Kd at H1 receptor (setting [2]) is 31.1 µM. Besides, the “LTD4 receptor (%), inhibition rate” value on LTD4 receptor (b: 10 μM) is on record as 30%.
The term inhibition denotes the change of the read-out against control, counted positive when it falls. As for `CN(Cc1cccc(OCc2ccc3ccccc3n2)c1)c1ccc2c(c1)SCC(=O)N2` [96(a), 7-[N-methyl-N-{3-(2-quinolinylmethoxy)benzyl}amino]-3,4-dihydro-2H-1,4-benzothiazin-3-one], the inhibition at 10 µM on H1 receptor (b: 10 μM, read-out: H1 receptor (%), inhibition rate) is 4%; on LTD4 receptor (b: 10 μM), 9%.
Regarding `N#Cc1cc2cc(OCc3cccc(OCc4ccc5ccccc5n4)c3)ccc2[nH]c1=O` [Example 1, 3-cyano-6-[3-(2-quinolinylmethoxy)benzyloxy]-1,2-dihydroquinolin-2-one], the dissociation constant (Kd) on LTD4 receptor was found to be 0.118 µM.
Still for that read-out and setting: in the case of `Cc1ccc(OCc2cccc(OCc3ccc4ccccc4n3)c2)c2ccc(=O)[nH]c12` [Example 2, 8-Methyl-5-[3-(2-quinolinylmethoxy)benzyloxy]-1,2-dihydroquinolin-2-one] it was 1.56 µM.
Turning to `Cc1ccc(OCc2cccc(OCc3ccc4ccccc4n3)c2)c2cc(C#N)c(=O)[nH]c12` [Example 3, 3-Cyano-8-methyl-5-[3-(2-quinolinylmethoxy)benzyloxy]-1,2-dihydroquinolin-2-one], the inhibition at 100 µM at H1 receptor (setting [3]) is 44%. For the same molecule, at LTD4 receptor, the Kd came out at 0.523 µM.
As to `Cc1ccc(OCc2cccc(OCc3ccc4ccccc4n3)c2)c2cc(Cl)c(=O)[nH]c12` [Example 4], the inhibition at 100 µM on LTD4 receptor was determined as 0%.
Regarding `Cc1ccc(OCc2cccc(OCc3ccc4ccccc4n3)c2)c2c1NC(=O)CC2` [Example 5, 8-Methyl-5-[3-(2-quinolinylmethoxy)benzyloxy]-1,2,3,4-tetrahydroquinolin-2-one], the inhibition at 100 µM on H1 receptor (setting [3]) was 57%. For the same molecule, the Kd on LTD4 receptor amounted to 0.316 µM.
On to `O=C1CCc2ccc(OCc3cccc(OCc4ccc5ccccc5n4)c3)cc2N1` [Example 7], for which the inhibition at 100 µM on H1 receptor (setting [3]) turned out to be 46%. Besides, the Kd on LTD4 receptor is 0.209 µM.
Turning to `O=C1CCc2cccc(OCc3cccc(OCc4ccc5ccccc5n4)c3)c2N1` [Example 8, 8-[3-(2-Quinolinylmethoxy)benzyloxy]-1,2,3,4-tetrahydroquinolin-2-one], the Kd on H1 receptor stood at 145 µM; on LTD4 receptor, 0.322 µM.
For `O=C1CCCc2cc(OCc3cccc(OCc4ccc5ccccc5n4)c3)ccc2N1` [Example 9, 7-[3-(2-Quinolinylmethoxy)benzyloxy]-2,3,4,5-tetrahydrobenz[b]azepin-2-one] the same measures were 47.6 µM and 0.148 µM.
Turning to `Cc1ccc(OCc2cccc(OCc3ccc4ccccc4n3)c2)c2c1NC(=O)C2(C)C` [Example 13, 4-[3-(2-Quinolinylmethoxy)benzyloxy]-3,3,7-trimethyl-2,3-dihydro-1H-indol-2-one], the Kd at LTD4 receptor came to 0.303 µM.
Turning to `Cc1ccc(OCc2ccc(OCc3ccc4ccccc4n3)cc2)c2cc(C#N)c(=O)[nH]c12` [Example 19, 3-Cyano-8-methyl-5-[4-(2-quinolinylmethoxy)benzyloxy]-1,2-dihydroquinolin-2-one], the inhibition at 100 µM at LTD4 receptor came out at 0%.
Still for that read-out and setting: in the case of `Cc1ccc(OCc2ccc(OCc3ccc4ccccc4n3)cc2)c2cc(Cl)c(=O)[nH]c12` [Example 20, 3-Chloro-8-methyl-5-[4-(2-quinolinylmethoxy)benzyloxy]-1,2-dihydroquinolin-2-one] it was 0%.
`O=C1CSc2cc(OCc3ccc(OCc4ccc5ccccc5n4)cc3)ccc2N1` [Example 26, 7-[4-(2-Quinolinylmethoxy)benzyloxy]-3,4-dihydro-2H-1,4-benzothiazin-3-one]: at LTD4 receptor, the Kd was found to be 546 µM.
Still for that read-out and setting: in the case of `Cc1ccc(OCc2cccc(OCc3ccc4ccccc4n3)c2)c2cc(-c3nn[nH]n3)c(=O)[nH]c12` [Example 47, 8-methyl-5-[3-(2-quinolinylmethoxy)benzyloxy]-3-(5-tetrazolyl)-1,2-dihydroquinolin-2-one] it was 0.335 µM; in that of `Cc1ccc(OCc2ccc(OCc3ccc4ccccc4n3)cc2)c2cc(-c3nn[nH]n3)c(=O)[nH]c12` [Example 48, 8-methyl-5-[4-(2-quinolinylmethoxy)benzyloxy]-3-(5-tetrazolyl)-1,2-dihydroquinolin-2-one], 0.304 µM; in that of `Cc1ccc(OCc2cccc(OCc3ccc4ccccc4n3)c2)c2c1NC(=S)C2(C)C` [Example 49, 4-[3-(2-quinolinylmethoxy)benzyloxy]-3,3,7-trimethyl-2,3-dihydro-1H-indol-2-thione], 40 µM.
On the same count and under the same terms, in the case of `O=C(O)c1cc2cc(OCc3cccc(OCc4ccc5ccccc5n4)c3)ccc2[nH]c1=O` [Example 50, 2-oxo-6-[3-(2-quinolinylmethoxy)benzyloxy]-1,2-dihydroquinoline-3-carboxylic acid] it was 1.08 µM; in that of `Cc1ccc(OCc2cccc(OCc3ccc4ccccc4n3)c2)c2cc(C(=O)O)c(=O)[nH]c12` [Example 51, 8-methyl-2-oxo-5-[3-(2-quinolinylmethoxy)benzyloxy]-1,2-dihydroquinoline-3-carboxylic acid], 11.7 µM.
On the same count and under the same terms, in the case of `Cc1ccc(OCc2ccc(OCc3ccc4ccccc4n3)cc2)c2cc(C(=O)O)c(=O)[nH]c12` [Example 52, 8-methyl-2-oxo-5-[4-(2-quinolinylmethoxy)benzyloxy]-1,2-dihydroquinoline-3-carboxylic acid] it was 0.302 µM.
With `O=C1CSc2cc(OC(=O)c3cccc(OCc4ccc5ccccc5n4)c3)ccc2N1` [Example 58, 7-[3-(2-Quinolinylmethoxy]benzoyloxy]-3,4-dihydro-2H-1,4-benzothiazin-3-one], the inhibition at 100 µM at LTD4 receptor came to 0%.
`Cc1ccc(OC(=O)c2ccc(OCc3ccc4ccccc4n3)cc2)c2cc(C#N)c(=O)[nH]c12` [Example 62, 3-Cyano-8-methyl-5-[4-(2-quinolinylmethoxy)benzoyloxy]-1,2-dihydroquinolin-2-one]: the “LTD4 receptor (%), inhibition rate” value on LTD4 receptor (concentration not given) is given as 0%.
For `O=C1CSc2cc(OC(=O)c3ccc(OCc4ccc5ccccc5n4)cc3)ccc2N1` [Example 66, 7-[4-(2-Quinolinylmethoxy)benzoyloxy]-3 4-dihydro-2H-1,4-benzothiazin-3-one], on LTD4 receptor (b: 10 μM), the inhibition at 10 µM was determined as 28%.
In the case of `O=C1CSc2cc(NC(=O)c3cccc(OCc4ccc5ccccc5n4)c3)ccc2N1` [Example 72, 7-[3-(2-Quinolinylmethoxy)benzoylamino]-3,4-dihydro-2H-1,4-benzothiazin-3-one], the Kd at LTD4 receptor came to 0.0462 µM.
`O=C1CSc2cc(NC(=O)c3ccc(OCc4ccc5ccccc5n4)cc3)ccc2N1` [Example 73]: the inhibition at 10 µM at LTD4 receptor (b: 10 μM) is 20%.
`O=C1CS(=O)(=O)c2cc(OCc3cccc(OCc4ccc5ccccc5n4)c3)ccc2N1` [Example 74, 7-[3-(2-quinolinylmethoxy)benzyloxy]-3,4-dihydro-2H-1,4-benzothiazin-3-one1,1-dioxide]: the Kd on LTD4 receptor was 235 µM.
Consider `O=C1CSc2cc(OCc3cccc(/C=C/c4ccc5ccc(Cl)cc5n4)c3)ccc2N1` [Example 81, trans-7-[3-[2-(7-chloroquinolin-2-yl)ethenyl]benzyloxy]-2H-3,4-dihydro-1,4-benzothiazin-3-one], for which the Kd on LTD4 receptor was 0.013 µM.
